From patent EP2647628A1, “Substituted tricyclic compounds with activity towards ep1 receptors” (Almirall, S.A., priority 2012, dated 2013)

Molecular target: T1, human EP1 receptor (Homo sapiens, UniProt P34995)
T1 construct: expressed in transfected cells; host or cells: HEK-293 cell membranes
T1 sequence (P34995 1-402): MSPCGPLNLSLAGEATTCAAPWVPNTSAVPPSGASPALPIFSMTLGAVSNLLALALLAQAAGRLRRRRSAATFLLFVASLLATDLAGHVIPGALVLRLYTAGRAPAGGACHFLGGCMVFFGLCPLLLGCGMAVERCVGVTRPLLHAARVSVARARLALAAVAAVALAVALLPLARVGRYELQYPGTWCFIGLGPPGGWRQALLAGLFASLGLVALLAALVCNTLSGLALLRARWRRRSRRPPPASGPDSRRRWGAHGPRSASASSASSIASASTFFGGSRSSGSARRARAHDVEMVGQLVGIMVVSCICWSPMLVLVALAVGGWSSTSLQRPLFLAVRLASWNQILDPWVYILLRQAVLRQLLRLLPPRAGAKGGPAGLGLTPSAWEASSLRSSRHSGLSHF
Experiment: Human EP1 receptor radioligand binding assay
Settings: [3H]-PGE2 (10 nM), transfected HEK-293 cell membranes, pH 6.0, 25 °C, 60 minutes; Ki by Cheng-Prusoff equation
Method: To investigate binding properties of EP1 receptor ligands to human EP1 receptor, transfected HEK-293 cell membranes and [3H]-PGE2 (Perkin Elmer) were used. In 96-well plates the assay was carried out with a total reaction volume of 250 µl, containing 25 µl of membrane suspension (30 µg protein/well), 25 µl of [3H]-PGE2 (10 nM) in either absence or presence of 25 µl of either buffer or PGE2 (10 µM) for total and non-specific binding, respectively. Binding buffer contained 10 mM MES, 1 mM MgCl2 and 1 mM EDTA at pH 6.0. Plates were incubated at 25 °C for 60 minutes. After the incubation period, 200 µl of incubate were transferred to MultiScreen HTS, FB plates (Millipore), filtered and plates were washed 6 times with ice-cold 10 mM MES, 1 mM MgCl2 and 1 mM EDTA at pH 6.0. Filters were dried and counted in a MicroBeta scintillation counter (Perkin-Elmer) using EcoScint liquid scintillation cocktail.
Percentage inhibition was calculated relating compounds activity to the 0% inhibition of the wells incubated with 10 nM [3H]-PGE2 alone (total binding) and 100% inhibition of the wells incubated with 10 nM [3H]-PGE2 plus 10 µM PGE2 (non-specific binding). Competition binding curves were carried out by assaying 6 different concentrations with duplicated points. The inhibition constant (Ki) of each compound was calculated by the Cheng-Prusoff equation: Ki = IC50 /(1+[L]/KD) [formula] where IC50 is the concentration of compound that displaces the binding of radioligand by 50%, [L] is the free concentration of radioligand and KD is the dissociation constant of each radioligand. IC50 values were obtained by fitting the data with non-linear regression using XIFit software (IDBS).

Ki | SMILES
100 to 500 nM | O=C(O)c1ccc([C@@H]2Nc3ccc(Br)cc3[C@@H]3CCC[C@@H]32)cc1 [EXAMPLE 02, 4-((3aS,4R,9bR)-8-bromo-2,3,3a,4,5,9b-hexahydro-1H cyclopenta[c]quinolin-4-yl)benzoic acid]
100 to 500 nM | COc1ccc2c(c1)[C@]1(C)CCC[C@@H]1[C@H](c1ccc(C(=O)O)cc1)N2 [EXAMPLE 69, 4-((3aS,4R,9bR)-2,3,3a,4,5,9b-hexahydro-8-methoxy-9b-methyl-1H-cyclopenta[c]quinolin-4-yl)benzoic acid]
> 500 nM | Cc1ccc2c(c1)[C@@H]1CCC[C@@H]1[C@H](c1ccc(C(=O)O)c(C)c1)N2 [EXAMPLE 36, 4-((3aS, 4R, 9bR)-2,3,3a, 4,5,9b-hexahydro-8-methyl-1H-cyclopenta[c]quinolin-4-yl)-2-methylbenzoic acid]
> 500 nM | Cc1ccc2c(c1)[C@@H]1CCC[C@@H]1[C@H](c1cc(C(=O)O)nn1C)N2 [EXAMPLE 62, 5-((3aS,4R,9bR)-2,3,3a,4,5,9b-hexahydro-8-methyl-1H-cyclopenta[c]quinolin-4-yl)-1-methyl-1H-pyrazole-3-carboxylic acid]
> 500 nM | N#Cc1ccc2c(c1)[C@@H]1CCC[C@@H]1[C@H](c1ccc(C(=O)O)cc1)N2 [EXAMPLE 19, 4-((3aS,4R,9bR)-8-cyano-2,3,3a,4,5,9b-hexahydro-1H-cyclopenta[c]quinolin-4-yl)benzoic acid]
> 500 nM | Cc1cc2c(cc1Cl)N[C@@H](c1ccc(C(=O)O)cc1)[C@H]1CCC[C@@H]21 [EXAMPLE 29, 4-((3aS,4R,9bR)-7-chloro-2,3,3a,4,5,9b-hexahydro-8-methyl-1H-cyclopenta[c]quinolin-4-yl)benzoic acid]
100 to 500 nM | CC(C)c1ccc2c(c1)[C@@H]1CCC[C@@H]1[C@H](c1ccc(C(=O)O)cc1)N2 [EXAMPLE 18, 4-((3aS,4R,9bR)-2,3,3a,4,5,9b-hexahydro-8-isopropyl-1H-cyclopenta[c]quinolin-4-yl)benzoic acid]
> 500 nM | Cc1ccc2c(c1)[C@@H]1CCC[C@@H]1[C@H](c1ccc(C(=O)O)cc1)N2C [EXAMPLE 30, 4-((3aS,4R,9bR)-2,3,3a,4,5,9b-hexahydro-5,8-dimethyl-1H-cyclopenta[c]quinolin-4-yl)benzoic acid]
100 to 500 nM | Cc1ccc2c(c1)[C@]1(C)CCC[C@@H]1[C@H](c1ccc(C(=O)O)cc1C)N2 [EXAMPLE 75, 4-((3aS, 4R, 9bR)-2,3,3a, 4,5,9b-hexahydro-8,9b-dimethyl-1H-cyclopenta[c]quinolin-4-yl)-3-methylbenzoic acid]
< 100 nM | COc1ccc2c(c1)[C@@H]1CCC[C@@H]1[C@H](c1ccc(C(=O)O)cc1)N2 (racemic) [EXAMPLE 07, 4-((3aS,4R,9bR)-2,3,3a,4,5,9b-hexahydro-8-methoxy-1H-cyclopenta[c]quinolin-4-yl)benzoic acid]
100 to 500 nM | CCc1cc(C(=O)O)ccc1[C@H]1Nc2ccc(OC)cc2[C@@H]2CCC[C@H]12 [EXAMPLE 55, 3-ethyl-4-((3aS,4S,9bR)-2,3,3a,4,5,9b-hexahydro-8-methoxy-1H-cyclopenta[c]quinolin-4-yl)benzoic acid]
< 100 nM | COc1ccc2c(c1)[C@@H]1CCC[C@@H]1[C@@H](c1c(C)cc(C(=O)O)cc1C)N2 [EXAMPLE 57, 4-((3aS,4S,9bR)-2,3,3a,4,5,9b-hexahydro-8-methoxy-1H-cyclopenta[c]quinolin-4-yl)-3,5-dimethylbenzoic acid]
< 100 nM | Cc1ccc2c(c1)[C@@H]1CCC[C@@H]1[C@H](c1ccc(C(=O)O)cc1C)N2 (single isomer, unassigned) [EXAMPLE 37a]
100 to 500 nM | Cc1ccc2c(c1)[C@@H]1CCC[C@@H]1[C@H](c1ccc(C(=O)O)cc1)N2 (racemic) [EXAMPLE 04, 4-((3aS,4R,9bR)-2,3,3a,4,5,9b-hexahydro-8-methyl-1H-cyclopenta[c]quinolin-4-yl)benzoic acid]
< 100 nM | O=C(O)c1ccc([C@@H]2Nc3ccc(Cl)cc3[C@@H]3CCC[C@@H]32)cc1 (single isomer, unassigned) [EXAMPLE 06a]
100 to 500 nM | Cc1cc(C(=O)O)ccc1[C@@H]1Nc2ccc(C3CC3)cc2[C@@H]2CCC[C@@H]21 [EXAMPLE 43, 4-((3aS, 4R, 9bR)-8-cyclopropyl-2,3,3a, 4,5,9b-hexahydro-1H cyclopenta[c]quinolin-4-yl)-3-methylbenzoic acid]
< 100 nM | Cc1ccc2c(c1)[C@@H]1CCC[C@@H]1[C@@H](c1c(C)cc(C(=O)O)cc1C)N2 [EXAMPLE 56, 4-((3aS,4S,9bR)-2,3,3a,4,5,9b-hexahydro-8-methyl-1H cyclopenta[c]quinolin-4-yl)-3,5-dimethylbenzoic acid]
> 500 nM | CCCc1ccc2c(c1)[C@@H]1CCC[C@@H]1[C@H](c1ccc(C(=O)O)cc1)N2 [EXAMPLE 12, 4-((3aS, 4R, 9bR)-2,3,3a, 4,5,9b-hexahydro-8-propyl-1H-cyclopenta[c]quinolin-4-yl)benzoic acid]
100 to 500 nM | Cc1ccc2c(c1)[C@@H]1CCC[C@@H]1[C@H](c1ccc(C(=O)O)cc1Cl)N2 [EXAMPLE 47, 3-chloro-4-((3aS, 4R, 9bR)-2,3,3a, 4,5,9b-hexahydro-8-methyl-1H-cyclopenta[c]quinolin-4-yl)benzoic acid]
